Test results: PMC3849266, “In Vitro and In Vivo Evaluation of a ^18F-Labeled High Affinity NOTA Conjugated Bombesin Antagonist as a PET Ligand for GRPR-Targeted Tumor Imaging” (PLoS ONE, 2013)
Entries after “also recorded” stand apart in the source; their conditions may differ. Where two headings read alike, the source gives them in different places.

Legend:
[1] = Labeling stability in murine serum (SDS-PAGE); format: in vitro ADME; conditions: 37 °C, 1 h
Method: The labeling stability was evaluated using SDS-PAGE analysis (200 V constant) on NuPAGE 4–12% bis-Tris gels (Invitrogen) with the aims to check the release of fluorine-18, transchelation of [^18F]AlF to serum proteins, and cleavage of labeled protein by peptidases. […] After incubation, the samples were treated with NuPAGE® LDS Sample Buffer according to the manufacturer’s instructions and finally 0.05 nmol of sample loaded on the gel. Na^18F-sodium fluoride was loaded in a separate lane as a low molecular weight internal reference.

[2] = Biodistribution and in vivo binding specificity in PC-3 tumor-bearing BALB/c nu/nu mice; conditions: mouse, iv, total radioactivity, male BALB/c nu/nu mice with PC-3 xenografts, 45 pmol i.v.; for tissue uptake at 1 h / tissue uptake at 6 h / tissue uptake at 3 h: male, BALB/c nu/nu; for tissue uptake at 1 h / tissue uptake dose at 1 h: 1 h p.i.; for tissue uptake at 6 h / tissue uptake dose at 6 h: 6 h p.i.; for tissue uptake at 3 h / tissue uptake dose at 3 h: 3 h p.i.
Text: (§1) All animal studies were planned and performed in accordance with the national legislation on the protection of laboratory animals and the Ethic Committee for Animal Research of the Uppsala University approved the study plans. Randomly divided groups of 4 mice per data point were used in all experiments. […] BALB/c nu/nu male mice with PC-3 xenografts (weight 20±1 g at the time of the experiment) were used for tumor targeting and imaging studies. The tumors were grafted by subcutaneous injection of PC-3 cells (10^7 cells/mouse) into the right hind legs 3 weeks before the experiment. The average tumor size was 0.42±0.05 g at the time of the experiment.
(§2) The mice were sacrificed at 1, 3 and 6 h p.i. to determine the uptake in tumors and other receptor-positive organs. A group of animals was co-injected with an excess of non-labeled peptide (20 nmol) and sacrificed 1 h p.i. The blood and other organs of interest were collected and treated as described above.

PC-3 xenografts = test: as above
Text: as §1, §2

murine GRPRs = target: T1, murine GRPRs (Mus musculus, UniProt P21729); test: Biodistribution and in vivo binding specificity in NMRI mice; conditions: iv, total radioactivity, male NMRI mice, 45 pmol i.v., 1 h p.i.
T1 construct: from tissue; host or cells: organs of male NMRI mice, in vivo (pancreas, stomach, small intestine and others)
T1 sequence (P21729 whole entry): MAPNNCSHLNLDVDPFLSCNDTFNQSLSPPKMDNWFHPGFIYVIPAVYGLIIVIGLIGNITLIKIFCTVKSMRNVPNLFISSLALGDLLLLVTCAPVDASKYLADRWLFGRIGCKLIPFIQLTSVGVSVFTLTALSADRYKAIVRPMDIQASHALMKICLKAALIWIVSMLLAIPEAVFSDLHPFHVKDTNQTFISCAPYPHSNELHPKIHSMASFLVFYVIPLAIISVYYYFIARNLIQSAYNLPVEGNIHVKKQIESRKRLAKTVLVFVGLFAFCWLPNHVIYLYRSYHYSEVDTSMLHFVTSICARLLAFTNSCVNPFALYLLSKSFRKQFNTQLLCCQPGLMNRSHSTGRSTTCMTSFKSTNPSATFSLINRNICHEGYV
Text: as §1
(§3) The mice were euthanized 1 h post-injection (p.i.) by intraperitoneal administration of Ketalar-Rompun solution (10 mg/mL Ketalar and 1 mg/mL Rompun; 20 µL of solution per gram of body weight). Blood samples were collected by cardiac puncture. The organs of interest were collected, weighed and their radioactivity was measured. The organ uptake values were expressed as a percentage of the injected dose per gram of tissue (%ID/g) except for the gastrointestinal tract (GI) and carcass, which were expressed as %ID per whole sample.

[3] = as above; conditions: mouse, iv, total radioactivity, male NMRI mice, 45 pmol i.v., 1 h p.i.
Text: as §1, §3

[4] = blood, 45 pmol, read-out: Blood uptake
[5] = blood, blocked (co-injected 20 nmol non-labeled peptide), read-out: Blood uptake
[6] = bone, 45 pmol, read-out: Bone uptake
[7] = bone, blocked (co-injected 20 nmol non-labeled peptide), read-out: Bone uptake
[8] = kidney, 45 pmol, read-out: Kidney uptake
[9] = kidney, blocked (co-injected 20 nmol non-labeled peptide), read-out: Kidney uptake
[10] = liver, 45 pmol, read-out: Liver uptake
[11] = liver, blocked (co-injected 20 nmol non-labeled peptide), read-out: Liver uptake
[12] = lung, 45 pmol, read-out: Lung uptake
[13] = lung, blocked (co-injected 20 nmol non-labeled peptide), read-out: Lung uptake
[14] = muscle, 45 pmol, read-out: Muscle uptake
[15] = muscle, blocked (co-injected 20 nmol non-labeled peptide), read-out: Muscle uptake
[16] = pancreas, 45 pmol, read-out: Pancreas uptake
[17] = pancreas, blocked (co-injected 20 nmol non-labeled peptide), read-out: Pancreas uptake
[18] = small intestine, 45 pmol, read-out: Small intestine uptake
[19] = small intestine, blocked (co-injected 20 nmol non-labeled peptide), read-out: Small intestine uptake
[20] = spleen, 45 pmol, read-out: Spleen uptake
[21] = spleen, blocked (co-injected 20 nmol non-labeled peptide), read-out: Spleen uptake
[22] = stomach, 45 pmol, read-out: Stomach uptake
[23] = stomach, blocked (co-injected 20 nmol non-labeled peptide), read-out: Stomach uptake
[24] = tumor (PC-3 xenograft), 45 pmol, read-out: Tumor uptake
[25] = carcass (whole sample), read-out: Carcass uptake
[26] = carcass (whole sample), blocked (co-injected 20 nmol non-labeled peptide), read-out: Carcass uptake
[27] = gastrointestinal tract (whole sample), read-out: GI tract uptake
[28] = gastrointestinal tract (whole sample), blocked (co-injected 20 nmol non-labeled peptide), read-out: GI tract uptake
[29] = male BALB/c nu/nu mice with PC-3 xenografts, 45 pmol i.v., 3 h p.i.

## CC(C)C[C@H](NC(=O)C[C@H](O)[C@H](CC(C)C)NC(=O)[C@H](Cc1c[nH]cn1)NC(=O)CNC(=O)[C@@H](NC(=O)[C@H](C)NC(=O)[C@H](Cc1c[nH]c2ccccc12)NC(=O)[C@H](CCC(N)=O)NC(=O)[C@@H](Cc1ccccc1)NC(=O)COCCOCCNC(=O)CN1CCN(CC(=O)O)CCN(CC(=O)O)CC1)C(C)C)C(N)=O [[^18F]AlF-NOTA-P2-RM26]
[1]
  stability in murine serum: stable; also recorded: single radioactivity peak
[2]; [4]
  tissue uptake at 1 h: 0.48 ± 0.08 %ID/g
  tissue uptake at 6 h: 0.023 ± 0.001 %ID/g
[2]; [5]
  tissue uptake at 1 h: 0.4 ± 0.2 %ID/g
[2]; [6]
  tissue uptake at 1 h: 0.3 ± 0.08 %ID/g
  tissue uptake at 3 h: 0.17 ± 0.08 %ID/g
  tissue uptake at 6 h: 0.22 ± 0.08 %ID/g
[2]; [7]
  tissue uptake at 1 h: 0.2 ± 0.2 %ID/g
[2]; [8]
  tissue uptake at 1 h: 3.6 ± 0.3 %ID/g
  tissue uptake at 3 h: 1.74 ± 0.25 %ID/g
  tissue uptake at 6 h: 0.27 ± 0.06 %ID/g
[2]; [9]
  tissue uptake at 1 h: 3.9 ± 0.8 %ID/g
[2]; [10]
  tissue uptake at 1 h: 1.9 ± 0.4 %ID/g
  tissue uptake at 3 h: 0.45 ± 0.21 %ID/g
  tissue uptake at 6 h: 0.1 ± 0.02 %ID/g
[2]; [11]
  tissue uptake at 1 h: 1.6 ± 0.3 %ID/g
[2]; [12]
  tissue uptake at 1 h: 0.36 ± 0.06 %ID/g
  tissue uptake at 3 h: 0.2 ± 0.2 %ID/g
  tissue uptake at 6 h: 0.11 ± 0.08 %ID/g
[2]; [13]
  tissue uptake at 1 h: 0.4 ± 0.3 %ID/g
[2]; [14]
  tissue uptake at 1 h: 0.1 ± 0.03 %ID/g
  tissue uptake at 3 h: 0.03 ± 0.01 %ID/g
  tissue uptake at 6 h: 0.02 ± 0.01 %ID/g
[2]; [15]
  tissue uptake at 1 h: 0.09 ± 0.04 %ID/g
[2]; [16]
  tissue uptake at 1 h: 13 ± 2 %ID/g
  tissue uptake at 3 h: 2.7 ± 0.7 %ID/g
[2]; [17]
  tissue uptake at 1 h: 0.3 ± 0.2 %ID/g
[2]; [18]
  tissue uptake at 1 h: 4 ± 2 %ID/g
  tissue uptake at 3 h: 0.88 ± 0.39 %ID/g
  tissue uptake at 6 h: 0.13 ± 0.06 %ID/g
[2]; [19]
  tissue uptake at 1 h: 2.6 ± 0.9 %ID/g
[2]; [20]
  tissue uptake at 1 h: 1 ± 0.2 %ID/g
  tissue uptake at 3 h: 0.1 ± 0.03 %ID/g
  tissue uptake at 6 h: 0.15 ± 0.08 %ID/g
[2]; [21]
  tissue uptake at 1 h: 0.7 ± 0.2 %ID/g
[2]; [22]
  tissue uptake at 1 h: 2.4 ± 0.4 %ID/g
  tissue uptake at 3 h: 1.37 ± 0.35 %ID/g
  tissue uptake at 6 h: 0.33 ± 0.08 %ID/g
[2]; [23]
  tissue uptake at 1 h: 0.4 ± 0.1 %ID/g
[2]; [24]
  tissue uptake at 1 h: 6.3 ± 0.9 %ID/g
  tissue uptake at 3 h: 5.5 ± 0.7 %ID/g
  tissue uptake at 6 h: 2.3 ± 0.7 %ID/g
[2]; tumor (PC-3 xenograft), blocked (co-injected 20 nmol non-labeled peptide), read-out: Tumor uptake
  tissue uptake at 1 h: 0.8 ± 0.2 %ID/g
[2]; [25]
  tissue uptake dose at 1 h: 6 ± 1 %ID
  tissue uptake dose at 3 h: 3.8 ± 0.3 %ID
  tissue uptake dose at 6 h: 0.8 ± 0.2 %ID
[2]; [26]
  tissue uptake dose at 1 h: 4 ± 1 %ID
[2]; [27]
  tissue uptake dose at 1 h: 6.1 ± 0.8 %ID
  tissue uptake dose at 3 h: 5.2 ± 0.4 %ID
  tissue uptake dose at 6 h: 3 ± 0.1 %ID
[2]; [28]
  tissue uptake dose at 1 h: 4.8 ± 0.3 %ID
PC-3 xenografts; PC-3 xenografted mice, 1 h p.i., 20 nmol non-labeled peptide
  decrease of tumor uptake by co-injection of non-labeled peptide: more than 8 fold
PC-3 xenografts; [29]
  Stomach uptake: 1.4±0.4 %ID/g
  Tumor uptake: 5.53±0.75 %ID/g
Murine GRPRs; blood, read-out: Blood uptake
  tissue uptake at 1 h: 0.3 ± 0.1 %ID/g
Murine GRPRs; [5]
  tissue uptake at 1 h: 0.3 ± 0.1 %ID/g
Murine GRPRs; bone, read-out: Bone uptake
  tissue uptake at 1 h: 0.3 ± 0.2 %ID/g
Murine GRPRs; [7]
  tissue uptake at 1 h: 0.2 ± 0.1 %ID/g
Murine GRPRs; kidney, read-out: Kidney uptake
  tissue uptake at 1 h: 2.8 ± 0.5 %ID/g
Murine GRPRs; [9]
  tissue uptake at 1 h: 3.4 ± 0.8 %ID/g
Murine GRPRs; liver, read-out: Liver uptake
  tissue uptake at 1 h: 1.2 ± 0.3 %ID/g
Murine GRPRs; [11]
  tissue uptake at 1 h: 1.4 ± 0.4 %ID/g
Murine GRPRs; lung, read-out: Lung uptake
  tissue uptake at 1 h: 0.3 ± 0.2 %ID/g
Murine GRPRs; [13]
  tissue uptake at 1 h: 0.3 ± 0.1 %ID/g
Murine GRPRs; muscle, read-out: Muscle uptake
  tissue uptake at 1 h: 0.09 ± 0.03 %ID/g
Murine GRPRs; [15]
  tissue uptake at 1 h: 0.08 ± 0.03 %ID/g
Murine GRPRs; pancreas, read-out: Pancreas uptake
  tissue uptake at 1 h: 14 ± 6 %ID/g
Murine GRPRs; [17]
  tissue uptake at 1 h: 0.4 ± 0.1 %ID/g
Murine GRPRs; small intestine, read-out: Small intestine uptake
  tissue uptake at 1 h: 4 ± 2 %ID/g
Murine GRPRs; [19]
  tissue uptake at 1 h: 1.7 ± 0.7 %ID/g
Murine GRPRs; spleen, read-out: Spleen uptake
  tissue uptake at 1 h: 0.6 ± 0.3 %ID/g
Murine GRPRs; [21]
  tissue uptake at 1 h: 0.16 ± 0.08 %ID/g
Murine GRPRs; stomach, read-out: Stomach uptake
  tissue uptake at 1 h: 2 ± 1 %ID/g
Murine GRPRs; [23]
  tissue uptake at 1 h: 0.3 ± 0.1 %ID/g
[3]; [25]
  tissue uptake dose at 1 h: 5 ± 2 %ID
[3]; [26]
  tissue uptake dose at 1 h: 5 ± 1 %ID
[3]; [27]
  tissue uptake dose at 1 h: 11 ± 3 %ID
[3]; [28]
  tissue uptake dose at 1 h: 5 ± 1 %ID
